Results: patent US20250171516A1, “PEPTIDE ACIDS AS A GLP1R AGONIST AND ANTIBODY-DRUG CONJUGATES THEREOF” (Regeneron Pharmaceuticals, Inc., priority 2023, published 2025)
Where two headings read alike, the source gives them in different places. Starred links: 1 amine or outer side, 2 acyl side, 3 side chain; linkers in the order of their positions; H or OH if unused. Non-standard residues stand in square brackets, D forms with d. Residues, ends and D or L forms follow the SMILES beside them. Groups on a side chain read outwards from the residue. ξ: configuration not given here. *: point of attachment. X3 = CCc1cc(OCCCCn2cc(COCCOCCOCCOCCOCCOCCOCCOCCOCCOCCOCCOCCN)nn2)ccc1-c1ccc(C[C@H](N[*:1])C(=O)[*:2])cc1; X2 = CCc1cc(OCCCCn2cc(COCCOCCOCCOCCOCCOCCOCCOCCN[*:3])nn2)ccc1-c1ccc(C[C@H](N[*:1])C(=O)[*:2])cc1; X1 = CCc1cc(OCCCCn2cc(COCCOCCOCCOCCOCCOCCOCCOCCN)nn2)ccc1-c1ccc(C[C@H](N[*:1])C(=O)[*:2])cc1; Bip(2'-Et,4'-O(CH2)4N3) = CCc1cc(OCCCCN=[N+]=[N-])ccc1-c1ccc(C[C@H](N)C(=O)O)cc1; Bip(2'-Et,4'-O(CH2)4NH2) = CCc1cc(OCCCCN)ccc1-c1ccc(C[C@H](N)C(=O)O)cc1; Malonyl(2,2-Me2,histaminyl) = CC(C)(C(=O)NCCc1cnc[nH]1)C(=O)*; Nva(5-(3,5-Me2Ph)) = Cc1cc(C)cc(CCC[C@H](N)C(=O)O)c1; Ala(1H-tetrazol-5-yl) = N[C@@H](Cc1nnn[nH]1)C(=O)O; αMePhe(2-F) = C[C@](N)(Cc1ccccc1F)C(=O)O; γGlu = O=C(O)[C@H](CCC(=O)[*:2])N[*:1]; ξαMePhe(2-F) = CC(N)(Cc1ccccc1F)C(=O)O; tBu = CC(C)(C)*

Molecular target: GLP-1R (Homo sapiens, UniProt P43220)
Sequence (P43220 24-463): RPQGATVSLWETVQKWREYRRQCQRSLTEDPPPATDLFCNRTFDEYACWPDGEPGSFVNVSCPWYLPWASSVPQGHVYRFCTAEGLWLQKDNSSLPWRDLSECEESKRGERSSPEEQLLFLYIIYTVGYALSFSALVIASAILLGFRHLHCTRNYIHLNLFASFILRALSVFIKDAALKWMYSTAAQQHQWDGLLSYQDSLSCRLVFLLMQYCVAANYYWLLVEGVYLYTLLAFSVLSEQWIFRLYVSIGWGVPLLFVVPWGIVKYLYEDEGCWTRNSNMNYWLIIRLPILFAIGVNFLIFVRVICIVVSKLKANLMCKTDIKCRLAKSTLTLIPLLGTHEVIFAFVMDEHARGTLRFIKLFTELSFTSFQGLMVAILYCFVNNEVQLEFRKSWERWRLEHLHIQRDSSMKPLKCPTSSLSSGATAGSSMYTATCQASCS
Assay: GLP-1R cAMP assay of peptides (Tables 10, 14, 15)
Format: cell-based
[1] = Table 14, peptide amides, read-out: cAMP EC50
[2] = Table 10, read-out: GLP-1R CAMP EC50
[3] = Table 15, peptide acids, read-out: cAMP EC50

| SMILES | EC50 [1] | GLP-1R CAMP Max (Table 10) | EC50 [2] | further results |
| --- | --- | --- | --- | --- |
| CCc1cc(OCCCCN)ccc1-c1ccc(C[C@H](NC(=O)[C@H](CC(=O)O)NC(=O)[C@H](CO)NC(=O)[C@@H](NC(=O)[C@](C)(Cc2ccccc2F)NC(=O)[C@@H](NC(=O)CNC(=O)[C@H](Cc2nnn[nH]2)NC(=O)C(C)(C)C(=O)NCCc2cnc[nH]2)[C@@H](C)O)[C@@H](C)O)C(=O)N[C@@H](CCCc2cc(C)cc(C)c2)C(N)=O)cc1 [M2642] ({Malonyl(2,2-Me2,histaminyl)}-[Ala(1H-tetrazol-5-yl)]GT[αMePhe(2-F)]TSD[Bip(2'-Et,4'-O(CH2)4NH2)][Nva(5-(3,5-Me2Ph))]-NH2) | 0.0502 nM | – | – | – |
| CCc1cc(OCCCCN=[N+]=[N-])ccc1-c1ccc(C[C@H](NC(=O)[C@H](CC(=O)O)NC(=O)[C@H](CO)NC(=O)[C@@H](NC(=O)[C@](C)(Cc2ccccc2F)NC(=O)[C@@H](NC(=O)CNC(=O)[C@@H](N)Cc2nn[nH]n2)[C@@H](C)O)[C@@H](C)O)C(=O)N[C@@H](CCCc2cc(C)cc(C)c2)C(N)=O)cc1 [M2383] (H-[Ala(1H-tetrazol-5-yl)]GT[αMePhe(2-F)]TSD[Bip(2'-Et,4'-O(CH2)4N3)][Nva(5-(3,5-Me2Ph))]-NH2) | 280 nM | – | – | – |
| CC(C)(C(=O)NCCc1cnc[nH]1)C(=O)N[C@@H](Cc1nn[nH]n1)C(=O)NCC(=O)O [AA10-AA9-AA8-OH] | – | −1.39% | > 1000 nM | – |
| CCc1cc(OCCCCN=[N+]=[N-])ccc1-c1ccc(C[C@H](NC(=O)[C@H](CC(=O)O)NC(=O)[C@H](CO)NC(=O)[C@@H](NC(=O)[C@](C)(Cc2ccccc2F)NC(=O)[C@@H](NC(=O)CNC(=O)[C@H](Cc2nnn[nH]2)NC(=O)C(C)(C)C(=O)NCCc2cnc[nH]2)[C@@H](C)O)[C@@H](C)O)C(=O)N[C@@H](CCCc2cc(C)cc(C)c2)C(N)=O)cc1 [M2361] ({Malonyl(2,2-Me2,histaminyl)}-[Ala(1H-tetrazol-5-yl)]GT[αMePhe(2-F)]TSD[Bip(2'-Et,4'-O(CH2)4N3)][Nva(5-(3,5-Me2Ph))]-NH2) | 0.497 nM | – | – | – |
| C[C@@H](O)[C@H](NC(=O)CNC(=O)[C@H](Cc1nn[nH]n1)NC(=O)C(C)(C)C(=O)NCCc1cnc[nH]1)C(=O)O [AA10-AA9-AA8-AA7-OH] | – | −0.52% | > 1000 nM | – |
| CCc1cc(OCCCCn2cc(COCCOCCOCCOCCOCCOCCOCCOCCN)nn2)ccc1-c1ccc(C[C@H](NC(=O)[C@H](CC(=O)O)NC(=O)[C@H](CO)NC(=O)[C@@H](NC(=O)[C@](C)(Cc2ccccc2F)NC(=O)[C@@H](NC(=O)CNC(=O)[C@@H](N)Cc2nnn[nH]2)[C@@H](C)O)[C@@H](C)O)C(=O)N[C@@H](CCCc2cc(C)cc(C)c2)C(N)=O)cc1 [M6295] (H-[Ala(1H-tetrazol-5-yl)]GT[αMePhe(2-F)]TSD[X1][Nva(5-(3,5-Me2Ph))]-NH2) | 351 nM | – | – | – |
| C[C@@H](O)[C@H](NC(=O)CNC(=O)[C@H](Cc1nn[nH]n1)NC(=O)C(C)(C)C(=O)NCCc1cnc[nH]1)C(=O)N[C@@](C)(Cc1ccccc1F)C(=O)N[C@H](C(=O)N[C@@H](CO)C(=O)N[C@@H](CC(=O)O)C(=O)O)[C@@H](C)O [AA10-AA9-AA8-AA7-AA6-AA5-AA4-AA3-OH] | – | −0.25% | > 1000 nM | – |
| CCc1cc(OCCCCn2cc(COCCOCCOCCOCCOCCOCCOCCOCCN)nn2)ccc1-c1ccc(C[C@H](NC(=O)[C@H](CC(=O)O)NC(=O)[C@H](CO)NC(=O)[C@@H](NC(=O)[C@](C)(Cc2ccccc2F)NC(=O)[C@@H](NC(=O)CNC(=O)[C@H](Cc2nnn[nH]2)NC(=O)C(C)(C)C(=O)NCCc2cnc[nH]2)[C@@H](C)O)[C@@H](C)O)C(N)=O)cc1 ({Malonyl(2,2-Me2,histaminyl)}-[Ala(1H-tetrazol-5-yl)]GT[αMePhe(2-F)]TSD[X1]-NH2) | – | 104.11% | 59.6 nM | – |
| CCc1cc(OCCCCN=[N+]=[N-])ccc1-c1ccc(C[C@H](NC(=O)[C@H](CC(=O)O)NC(=O)[C@H](CO)NC(=O)[C@@H](NC(=O)C(C)(Cc2ccccc2F)NC(=O)[C@@H](NC(=O)CNC(=O)[C@H](Cc2nnn[nH]2)NC(=O)C(C)(C)C(=O)NCCc2cnc[nH]2)[C@@H](C)O)[C@@H](C)O)C(=O)O)cc1 (stereo partly shown) [AA10-AA9-AA8-AA7-AA6-AA5-AA4-AA3-AA2-OH] | – | 97.92% | 51.2 nM | – |
| CCc1cc(OCCCCn2cc(COCCOCCOCCOCCOCCOCCOCCOCCNC(=O)CC[C@H](NC(=O)[C@H](CC(C)C)NC(=O)[C@@H](N)CC(C)C)C(=O)O)nn2)ccc1-c1ccc(C[C@H](NC(=O)[C@H](CC(=O)O)NC(=O)[C@H](CO)NC(=O)[C@@H](NC(=O)[C@](C)(Cc2ccccc2F)NC(=O)[C@@H](NC(=O)CNC(=O)[C@H](Cc2nnn[nH]2)NC(=O)C(C)(C)C(=O)NCCc2cnc[nH]2)[C@@H](C)O)[C@@H](C)O)C(=O)N[C@@H](CCCc2cc(C)cc(C)c2)C(=O)O)cc1 [M6297] ({Malonyl(2,2-Me2,histaminyl)}-[Ala(1H-tetrazol-5-yl)]GT[αMePhe(2-F)]TSD[X2]([γGlu-Leu-Leu])[Nva(5-(3,5-Me2Ph))]-OH) | – | 103.80% | – | EC50: 13.4 nM |
| C[C@@H](O)[C@H](NC(=O)CNC(=O)[C@H](Cc1nn[nH]n1)NC(=O)C(C)(C)C(=O)NCCc1cnc[nH]1)C(=O)N[C@@](C)(Cc1ccccc1F)C(=O)N[C@H](C(=O)N[C@@H](CO)C(=O)O)[C@@H](C)O [AA10-AA9-AA8-AA7-AA6-AA5-AA4-OH] ({Malonyl(2,2-Me2,histaminyl)}-[Ala(1H-tetrazol-5-yl)]GT[αMePhe(2-F)]TS-OH) | – | −0.86% | > 1000 nM | – |
| CCc1cc(OCCCCn2cc(COCCOCCOCCOCCOCCOCCOCCOCCNC(=O)CC[C@H](NC(=O)[C@H](CC(C)C)NC(=O)[C@@H](N)CC(C)C)C(=O)O)nn2)ccc1-c1ccc(C[C@H](NC(=O)[C@H](CC(=O)O)NC(=O)[C@H](CO)NC(=O)[C@@H](NC(=O)C(C)(Cc2ccccc2F)NC(=O)[C@@H](NC(=O)CNC(=O)[C@H](Cc2nn[nH]n2)NC(=O)C(C)(C)C(=O)NCCc2cnc[nH]2)[C@@H](C)O)[C@@H](C)O)C(=O)O)cc1 (stereo partly shown) [M6321] | – | 33.86% | > 1000 nM | EC50 [3]: > 1000 nM |
| C[C@@H](O)[C@H](NC(=O)[C@](C)(Cc1ccccc1F)NC(=O)[C@@H](NC(=O)CNC(=O)[C@H](Cc1nn[nH]n1)NC(=O)C(C)(C)C(=O)NCCc1cnc[nH]1)[C@@H](C)O)C(=O)O [AA10-AA9-AA8-AA7-AA6-AA5-OH] ({Malonyl(2,2-Me2,histaminyl)}-[Ala(1H-tetrazol-5-yl)]GT[αMePhe(2-F)]T-OH) | – | −1.23% | > 1000 nM | – |
| CCc1cc(OCCCCN=[N+]=[N-])ccc1-c1ccc(C[C@H](NC(=O)[C@H](CC(=O)O)NC(=O)[C@H](CO)NC(=O)[C@@H](NC(=O)[C@](C)(Cc2ccccc2F)NC(=O)[C@@H](NC(=O)CNC(=O)[C@H](Cc2nn[nH]n2)NC(=O)C(C)(C)C(=O)NCCc2cnc[nH]2)[C@@H](C)O)[C@@H](C)O)C(=O)O)cc1 [M6320] | – | – | – | EC50 [3]: 51.2 nM |
| C[C@@H](O)[C@H](NC(=O)CNC(=O)[C@H](Cc1nn[nH]n1)NC(=O)C(C)(C)C(=O)NCCc1cnc[nH]1)C(=O)N[C@@](C)(Cc1ccccc1F)C(=O)O [AA10-AA9-AA8-AA7-AA6-OH] ({Malonyl(2,2-Me2,histaminyl)}-[Ala(1H-tetrazol-5-yl)]GT[αMePhe(2-F)]-OH) | – | −1.13% | > 1000 nM | – |
| CCc1cc(OCCCCN=[N+]=[N-])ccc1-c1ccc(C[C@H](NC(=O)[C@H](CC(=O)O)NC(=O)[C@H](COC(C)(C)C)NC(=O)[C@@H](NC(=O)C(C)(Cc2ccccc2F)NC(=O)[C@@H](NC(=O)CNC(=O)[C@H](Cc2nnn[nH]2)NC(=O)C(C)(C)C(=O)NCCc2cnc[nH]2)[C@@H](C)O)[C@@H](C)O)C(=O)N[C@@H](CCCc2cc(C)cc(C)c2)C(=O)O)cc1 (stereo partly shown) ({Malonyl(2,2-Me2,histaminyl)}-[Ala(1H-tetrazol-5-yl)]GT[ξαMePhe(2-F)]TS(tBu)D[Bip(2'-Et,4'-O(CH2)4N3)][Nva(5-(3,5-Me2Ph))]-OH) | – | 122.44% | 2.94 nM | – |
| CCc1cc(OCCCCn2cc(COCCOCCOCCOCCOCCOCCOCCOCCOCCOCCOCCOCCN)nn2)ccc1-c1ccc(C[C@H](NC(=O)[C@H](CC(=O)O)NC(=O)[C@H](CO)NC(=O)[C@@H](NC(=O)[C@](C)(Cc2ccccc2F)NC(=O)[C@@H](NC(=O)CNC(=O)[C@H](Cc2nn[nH]n2)NC(=O)C(C)(C)C(=O)NCCc2c[nH]cn2)[C@@H](C)O)[C@@H](C)O)C(=O)N[C@@H](CCCc2cc(C)cc(C)c2)C(N)=O)cc1 ({Malonyl(2,2-Me2,histaminyl)}-[Ala(1H-tetrazol-5-yl)]GT[αMePhe(2-F)]TSD[X3][Nva(5-(3,5-Me2Ph))]-NH2) | 1.89 nM | – | – | – |
| CCc1cc(OCCCCn2cc(COCCOCCOCCOCCOCCOCCOCCOCCNC(=O)CC[C@H](NC(=O)[C@H](CC(C)C)NC(=O)[C@@H](N)CC(C)C)C(=O)O)nn2)ccc1-c1ccc(C[C@H](NC(=O)[C@H](CC(=O)O)NC(=O)[C@H](CO)NC(=O)[C@@H](NC(=O)[C@](C)(Cc2ccccc2F)NC(=O)[C@@H](NC(=O)CNC(=O)[C@H](Cc2nnn[nH]2)NC(=O)C(C)(C)C(=O)NCCc2cnc[nH]2)[C@@H](C)O)[C@@H](C)O)C(=O)N[C@@H](CCCc2cc(C)cc(C)c2)C(N)=O)cc1 [M6296] ({Malonyl(2,2-Me2,histaminyl)}-[Ala(1H-tetrazol-5-yl)]GT[αMePhe(2-F)]TSD[X2]([γGlu-Leu-Leu])[Nva(5-(3,5-Me2Ph))]-NH2) | 1.19 nM | – | – | – |
| CCc1cc(OCCCCn2cc(COCCOCCOCCOCCOCCOCCOCCOCCNC(=O)CC[C@H](N)C(=O)O)nn2)ccc1-c1ccc(C[C@H](NC(=O)[C@H](CC(=O)O)NC(=O)[C@H](CO)NC(=O)[C@@H](NC(=O)C(C)(Cc2ccccc2F)NC(=O)[C@@H](NC(=O)CNC(=O)[C@H](Cc2nn[nH]n2)NC(=O)C(C)(C)C(=O)NCCc2cnc[nH]2)[C@@H](C)O)[C@@H](C)O)C(=O)O)cc1 (stereo partly shown) [M6322] | – | 29.24% | > 1000 nM | EC50 [3]: > 1000 nM |
| CCc1cc(OCCCCN=[N+]=[N-])ccc1-c1ccc(C[C@H](NC(=O)[C@H](CC(=O)O)NC(=O)[C@H](CO)NC(=O)[C@@H](NC(=O)[C@](C)(Cc2ccccc2F)NC(=O)[C@@H](NC(=O)CNC(=O)[C@H](Cc2nn[nH]n2)NC(=O)C(C)(C)C(=O)NCCc2cnc[nH]2)[C@@H](C)O)[C@@H](C)O)C(=O)N[C@@H](CCCc2cc(C)cc(C)c2)C(N)=O)cc1 [M2361] ({Malonyl(2,2-Me2,histaminyl)}-[Ala(1H-tetrazol-5-yl)]GT[αMePhe(2-F)]TSD[Bip(2'-Et,4'-O(CH2)4N3)][Nva(5-(3,5-Me2Ph))]-NH2) | 0.359 nM | – | – | – |
